The record followed here is patent publication US20100041744A1, “OILY PACLITAXEL COMPOSITION AND FORMULATION FOR CHEMOEM[…] PREPARATION METHOD THEREOF” (priority 2001, published 2010).

For orientation: solubility means the dissolved amount per volume that the medium holds. A high value points to much dissolved substance.

Molecules are shown by their SMILES. Converted amounts (≈) assume the structure as drawn. A value given as a limit tells only on which side of the number the result lay.

Data set [1] can be described thus: physchem. The note with it: oil or lipid.
Procedure: (§1) One milliliter of Lipiodol (Lipiodol Ultra-fluid, Laboratoire Guerbet, France, Iodine content 38% by weight) was used as an oily contrast medium. Lipiodol and 2, 4, 6, 8, 10 or 11 mg of paclitaxel (Samyang Genex, Korea) were added in test tubes (micro test tubes with safety lock, polyethylene, 1.5 ml, Eppendorf AG, Germany) and solubilized by stirring at room temperature. To speed up the solubilization process, it is acceptable to raise the temperature to 35˜45° C. or to sonicate in a bath type sonicator.
(§2) One milliliter of Lipiodol (Lipiodol Ultra-fluid, Laboratoire Guerbet, France, Iodine content 38% by weight) and 10 mg of paclitaxel (Samyang Genex, Korea) were added in test tubes and solubilized by stirring at room temperature. To speed up the solubilization process, the temperature of the mixture was raised to 40° C.
(§3) A mixture of 1 ml of Lipiodol (Lipiodol Ultra-fluid, Laboratoire Guerbet, France, Iodine content 38% by weight) and 0.01 ml of tricaprylin (Sigma Chemical Co.) and 12 mg of paclitaxel (Samyang Genex, Korea) were added in a test tube and solubilized by stirring at room temperature. To speed up the solubilization process, the composition was sonicated in a bath type sonicator.
The nature of data set [2]: Solubilization / solubility of paclitaxel in oily contrast medium.
Procedure: as §1, §2, §3

On to `CC(=O)O[C@H]1C(=O)[C@@]2(C)[C@H]([C@H](OC(=O)c3ccccc3)[C@]3(O)C[C@H](OC(=O)[C@H](O)[C@@H](NC(=O)c4ccccc4)c4ccccc4)C(C)=C1C3(C)C)[C@]1(OC(C)=O)CO[C@@H]1C[C@@H]2O` [paclitaxel], for which the solubility in data set [1] (Lipiodol (oily contrast medium), 26 °C, thermodynamic from solid) was around 10000 µg/mL (≈ 11.7 mM); in data set [1], at most 13000 µg/mL. Besides, in data set [2], the “solubility of paclitaxel in mixed oil system of lipiodol/tricaprylin compared with lipiodol alone” value is on record as “higher”.
